In brackets after ≈: the same amount, converted by molar mass.
Assays:
Assay type in all cases: functional
[1] = system: Acholeplasma laidlawii; test: In vitro antimicrobial activity against Acholeplasma laidlawii.
[2] = system: Bacillus cereus; test: In vitro antimicrobial activity against Bacillus cereus.
[3] = system: Candida albicans; test: In vitro antimicrobial activity against Candida albicans.
[4] = system: Escherichia coli; test: In vitro antimicrobial activity against Escherichia coli 182+PMBN.
[5] = system: Staphylococcus aureus; test: In vitro antimicrobial activity against methicillin resistant Staphylococcus aureus 1131.
[6] = system: Staphylococcus aureus; test: In vitro antimicrobial activity against penicillin resistant Staphylococcus aureus 853.
[7] = system: Staphylococcus aureus; test: In vitro antimicrobial activity against penicillin sensitive Staphylococcus aureus 663.
[8] = system: Staphylococcus epidermidis; test: In vitro antimicrobial activity against Staphylococcus epidermidis.
[9] = system: Saccharomyces cerevisiae; test: In vitro antimicrobial activity against Saccharomyces cerevisiae.

**Q.** Which MIC [1] does the source give for CCCOc1c2cccc1Cc1cc3cc(c1OCCC)Cc1cccc(c1OCCC)Cc1cc(cc(c1OCCC)C2)C(=O)N[C@@H](C)C(=O)NCCNCCNC(=O)[C@H](C)NC3=O here?
**A.** The MIC was over 128 µg/mL.

**Q.** What about the MIC [2] of the same compound?
**A.** The MIC was 16 µg/mL (≈ 18 µM).

**Q.** And the MIC [3]?
**A.** Its MIC is over 128 µg/mL.

**Q.** What about the MIC [4] of the same compound?
**A.** Its MIC is 32 µg/mL (≈ 35.9 µM).

**Q.** And the MIC [5]?
**A.** Its MIC is 4 µg/mL (≈ 4.49 µM).

**Q.** What about the MIC [6] of the same compound?
**A.** Its MIC is 16 µg/mL (≈ 18 µM).

**Q.** And the MIC [7]?
**A.** The MIC was 8 µg/mL (≈ 8.99 µM).

**Q.** And the MIC [8]?
**A.** Its MIC is 4 µg/mL (≈ 4.49 µM).

**Q.** And the MIC [9]?
**A.** The MIC was over 128 µg/mL.

**Q.** CCCOc1c2cccc1Cc1cc3cc(c1OCCC)Cc1cccc(c1OCCC)Cc1cc(cc(c1OCCC)C2)C(=O)N[C@H](C)C(=O)NCCNCCNC(=O)[C@@H](C)NC3=O was tested. Which MIC [5] did it give?
**A.** The MIC was 4 µg/mL (≈ 4.49 µM).

**Q.** What about the MIC [6] of the same compound?
**A.** Its MIC is 8 µg/mL (≈ 8.99 µM).

**Q.** What about the MIC [7] of the same compound?
**A.** Its MIC is 8 µg/mL (≈ 8.99 µM).

**Q.** What about the MIC [8] of the same compound?
**A.** The MIC was 8 µg/mL (≈ 8.99 µM).

**Q.** With CN[C@H](CC(C)C)C(=O)N[C@H]1C(=O)N[C@@H](CC(N)=O)C(=O)N[C@H]2C(=O)N[C@H]3C(=O)N[C@H](C(=O)N[C@H](C(=O)O)c4cc(O)cc(O)c4-c4cc3ccc4O)[C@H](O)c3ccc(c(Cl)c3)Oc3cc2cc(c3O[C@@H]2O[C@H](CO)[C@@H](O)[C@H](O)[C@H]2O[C@H]2C[C@](C)(N)[C@H](O)[C@H](C)O2)Oc2ccc(cc2Cl)[C@H]1O [VANCOMYCIN] as the compound, how does the MIC [1] read?
**A.** The MIC was over 128 µg/mL.

**Q.** And the MIC [2]?
**A.** The MIC was 2 µg/mL (≈ 1.38 µM).

**Q.** And the MIC [3]?
**A.** Its MIC is over 128 µg/mL.

**Q.** What about the MIC [9] of the same compound?
**A.** Its MIC is over 128 µg/mL.

**Q.** What does the source list for CCCOc1c2cccc1Cc1cc3cc(c1OCCC)Cc1cccc(c1OCCC)Cc1cc(cc(c1OCCC)C2)C(=O)N[C@@H](C)C(=O)NCCN(C(=O)OC(C)(C)C)CCNC(=O)[C@H](C)NC3=O?
**A.** MIC [5]: 64 µg/mL (≈ 64.6 µM); MIC [6]: > 64 µg/mL; MIC [7]: 64 µg/mL (≈ 64.6 µM); MIC [8]: 32 µg/mL (≈ 32.3 µM)

**Q.** How did the MIC [5] turn out when CCCOc1c2cccc1Cc1cc3cc(c1OCCC)Cc1cccc(c1OCCC)Cc1cc(cc(c1OCCC)C2)C(=O)N[C@@H](C)C(=O)N[C@@H](C)C(=O)NCCNCCNC(=O)[C@H](C)NC(=O)[C@@H](C)NC3=O [VANCOMYCIN MIMIC] was run?
**A.** Its MIC is 32 µg/mL (≈ 31 µM).

**Q.** What about the MIC [6] of the same compound?
**A.** Its MIC is 32 µg/mL (≈ 31 µM).

**Q.** And the MIC [7]?
**A.** Its MIC is 32 µg/mL (≈ 31 µM).

**Q.** What about the MIC [8] of the same compound?
**A.** Its MIC is 32 µg/mL (≈ 31 µM).
